Measured values from patent US20200155487A1, “Treatment of obesity and its complications” (CymaBay Therapeutics, Inc., priority 2018, published 2020).

Assays:
[1] = tested on: dyslipidemic overweight patients; settings: cited from earlier work; for reduction of alkaline phosphatase: control group 4%
obese subjects = test: Example 2 clinical study, single agent seladelpar in obese subjects, 52 weeks; type: in vivo, human; settings: 10, 20, and 50 mg/day for 52 weeks
Description: Subjects are permitted their usual other medications (e.g. antidiabetic medications such as metformin or […]) but not glitazones, PPAR agonists, OCA, or similar medications. […] The primary efficacy outcome is the change in body weight. Other outcome measures related to the complications of obesity include change in baseline in liver fat content at 12 weeks, as measured by magnetic resonance imaging-derived proton density fat fraction (MRI-PDFF), histological improvement in NASH and fibrosis, assessed by comparing liver biopsy samples at baseline and at 52 weeks after the start of dosing; MRI-PDFF at 26 and 52 weeks; and measurements of total cholesterol, HDL-C, LDL-C, VLDL-C, TGs, apoB, and liver transaminases. The subjects also maintain health diaries, which are reviewed at each visit.

DIO-NASH C57BL/6J mouse = test: Diet-induced obese mouse model of NASH (DIO-NASH), 12 weeks dosing; type: in vivo; settings: SD in parentheses
Description: The diet-induced obese mouse model of NASH (DIO-NASH) uses the C57BL/6J mouse fed a high fat diet that results in NAFLD/NASH. A protocol is described in Kristiansen et al., “Obese diet-induced mouse models of nonalcoholic steatohepatitis—tracking disease by liver biopsy”, World J. Hepatol., 8(16), 673-684 (2016). Male C57BL/6J mice were fed an atherogenic 40% high fat diet (AMLN diet, D09100301, Research Diet, US—40 kcal % fat (18% trans fat), 40 kcal % carbohydrate (20% fructose), 2% cholesterol) for 43 weeks before the start of the trial, to induce NAFLD/NASH. At week −3, the mice underwent a liver biopsy, which was scored for steatosis and fibrosis; mice with fibrosis stage <1 and steatosis score <2 were deselected prior to randomization. A stratified randomization into treatment groups was performed according to liver Collal quantification. […] At 12 weeks, analyses included body weight, plasma ALT, AST, triglycerides, and total cholesterol; liver triglycerides and total cholesterol; and NAS, fibrosis, Collal, galectin-3, and steatosis and fibrosis scores from a liver biopsy. Results are given in the table below: standard deviations are in parentheses: […]

[2] = tested on: Alms1 mutant (foz/foz) mice; settings: mouse, in vivo; cited from earlier work
NAFLD/NASH = settings: in vivo; cited from earlier work
women and men = settings: human, in vivo; cited from earlier work
[3] = tested on: patients with type 2 diabetes; settings: in SNAC carrier, 20 and 40 mg/day; cited from earlier work
[4] = compared to placebo, alone and with atorvastatin, 8 weeks

## CC(C)c1c(C(=O)Nc2ccccc2)c(-c2ccccc2)c(-c2ccc(F)cc2)n1CC[C@@H](O)C[C@@H](O)CC(=O)O [ATV, reference compound]
[1]; 8 weeks, atorvastatin 20 mg
  increase of γ-glutamyl transpeptidase: 2%
[1]; 8 weeks
  reduction of alkaline phosphatase: 6%

## CCO[C@H](COc1ccc(C(F)(F)F)cc1)CSc1ccc(OCC(=O)O)c(C)c1 [Seladelpar, (R)-2-(4-((2-ethoxy-3-(4-(trifluoromethyl)phenoxy)propyl)-sulfanyl)-2-methylphenoxy)acetic acid]
Obese subjects
  improvement in obesity and complications (body weight, MRI-PDFF, liver biopsy, NAS score): dose-related improvement
[1]; 8 weeks, control group 3%
  reduction of γ-glutamyl transpeptidase: 24-28%
[1]; 8 weeks
  reduction of alkaline phosphatase: 32-43%
[1]; compared to placebo, 50 or 100 mg alone or with atorvastatin 20 mg, 8 weeks, P<0.05
  reduction of apoB100: 20-38%
[1]; [4]
  raise of HDL-C: 1-12%
  reduction of LDL: 18-43%
  reduction of free fatty acids: 16-28%
  reduction of high-sensitivity C-reactive protein: 43-72%
  reduction of non-HDL-C: 18-41%
  reduction of triglycerides: 26-30%
[1]; in vivo
  depletion of small dense LDL particles: 92%
  reduction of the percentage of subjects meeting the criteria for metabolic syndrome: > 2 fold
  safety and tolerability: safe and generally well-tolerated
DIO-NASH C57BL/6J mouse; after 12 weeks dosing
  NAS post-treatment: 3.9 (0.5)
DIO-NASH C57BL/6J mouse; at 12 weeks
  Liver TC: 10 (3) mg/g liver
  Liver TG: 75 (20) mg/g liver
  Plasma TC: 257 (40) mg/dL
  Plasma TG: 38 (20) mg/dL
DIO-NASH C57BL/6J mouse; baseline biopsy before dosing
  NAS pre-treatment: 6.0 (0.8)
DIO-NASH C57BL/6J mouse; liver biopsy at 12 weeks
  Sirius red stain: 2.4 (1.8) %
DIO-NASH C57BL/6J mouse; plasma, at 12 weeks
  ALT: 107 (65) U/L
  AST: 162 (59) U/L
[2]
  NASH pathology (hepatic steatosis, inflammation, fibrosis): improves NASH pathology

## CCCCCCCCCCC[C@@H](C[C@@H]1OC(=O)[C@H]1CCCCCC)OC(=O)[C@H](CC(C)C)NC=O [orlistat]
NAFLD/NASH
  benefit in NAFLD/NASH compared to weight loss alone: no significant benefit

## CCc1ccc(CCOc2ccc(CC3SC(=O)NC3=O)cc2)nc1 (stereo not shown) [pioglitazone]
Women and men
  associated risks: significantly increased risk of weight gain, edema, congestive heart failure, and osteoporotic fractures

## semaglutide
[3]
  efficacy of once/day oral dosing: efficacious
